Experimental data reported in US10933059B2, “Combination, application thereof and treatment method” (KANGPU BIOPHARMACEUTICALS, LTD., priority 2016, dated 2021).

Experiments:
Format in all cases: cell-based
Vcap cells = experiment: CTG cell proliferation assay on Vcap cells (compounds alone or in combination, 5 days); settings: for viability at 0.1 µM / viability at 1 µM / viability at 10 µM: Homo sapiens, VCaP, 120 h, read-out: Survival rate of Vcap cells; for Vcap cell proliferation inhibition rate: 5 days
Experimental: In vitro test of the inhibition effect of the compound in combination with androgen receptor pathway modulators on the prostate cancer cell proliferation.
Inhibition effect of the compounds such as B101, B102, B103, B104, B105, B106, C111 and the like, androgen receptor pathway modulators, hormone compounds, alone or in combination with each other on the prostate cancer cell proliferation were tested on Vcap cells (androgen receptor (+) prostate cancer cells) (ATCC, catalogue number CRL-2876). The specific experimental operation was as follows: 5×10^3 Vcap cells per well were inoculated into 96-well plates with transparent bottom and white wall (Corning, catalogue number CLS3903) containing the specific medium, and were cultured in a 37° C., 5% CO2 incubator for 24 hours. The tested compounds and the androgen receptor pathway modulators were prepared to a 150 mM stocking solution with DMSO (Sigma, catalogue number 276855), diluted with culture medium to the desired concentrations (the final concentration of DMSO is 0.2%), and then added to each well, 2 wells/concentration, followed by being incubated in a 37° C., 5% CO2 incubator for 5 days. The tested compounds were used alone or in combination with other androgen receptor pathway modulators and/or hormone compounds respectively. […] After that, 100 μl of CellTiter-Glo® cell viability assay reagent (Promega, catalogue number G7570) was added to each well and mixed well on a vibrator for 10 minutes to induce cell lysis. The 96-well plate was placed at room temperature for 10 minutes, so as to stabilize its luminescence signal. A white bottom membrane was pasted on the bottom of the plate and the plate was tested using EnSpire.

LNCap cells = experiment: CTG cell proliferation assay on LNCap cells (method of Effect embodiment 1)
PSA (Prostate antigen) = experiment: PSA inhibition rate experiment (PSA secretion in supernatant of VCap cells); settings: Homo sapiens, 120 h
Experimental: Cells were collected in exponential growth phase for viable cell count. The cell suspension was adjusted to 4.17×10E4/ml with the medium mentioned above. 120 μl of cell suspension was added to each well of a 96-well cell culture plateat, a final concentration of cells was 5000 cells/well. The cells were incubated overnight in a 37° C., 5% CO2 incubator.
10 mM stocking solution was prepared by dissolving each tested compound in DMSO. […] The final concentration of DMSO per well was 0.2%. The cells were incubated for 5 days in a 37° C., 5% CO2 incubator.
After 5 days' drug treatment, the cell supernatant of each well was collected, and centrifuged at 2000 r/min for 5 minutes, then transferred to a clean EP tube for PSA detection.
Wherein, Vsample is the PSA reading of the drug treatment group, and VDMSO is the average value of PSA of the solvent control group.

[1] = tested compound 0.1 μM in combination with 1 μM ARN-509
[2] = tested compound 0.1 μM in combination with 1 μM Abiraterone acetate
[3] = tested compound 0.1 μM in combination with 1 μM Enzalutamide
[4] = tested compound 0.1 μM in combination with 1 μM Galeterone
[5] = tested compound 0.1 μM in combination with 1 μM ODM-201
[6] = tested compound 1 μM in combination with 1 μM ARN-509
[7] = tested compound 1 μM in combination with 1 μM Abiraterone acetate
[8] = tested compound 1 μM in combination with 1 μM Enzalutamide
[9] = tested compound 1 μM in combination with 1 μM Galeterone
[10] = tested compound 1 μM in combination with 1 μM ODM-201
[11] = tested compound 10 μM in combination with 1 μM ARN-509
[12] = tested compound 10 μM in combination with 1 μM Abiraterone acetate
[13] = tested compound 10 μM in combination with 1 μM Enzalutamide
[14] = tested compound 10 μM in combination with 1 μM Galeterone
[15] = tested compound 10 μM in combination with 1 μM ODM-201
[16] = tested compound 0.1 μM in combination with 1 μM B101
[17] = tested compound 0.1 μM in combination with 1 μM B105
[18] = tested compound 1 μM in combination with 1 μM B101
[19] = tested compound 1 μM in combination with 1 μM B105
[20] = tested compound 10 μM in combination with 1 μM B101
[21] = tested compound 10 μM in combination with 1 μM B105

In the case of `Nc1cc(F)cc2c1CN(C1CCC(=O)NC1=O)C2=O` (stereo not shown) [B101], the viability at 0.1 µM (Vcap cells; tested compound alone) was 77.7%, the viability at 1 µM (Vcap cells; tested compound alone, 1 μM) was 65.4% and the viability at 10 µM (Vcap cells; tested compound alone) was 64.7%. For the same compound, the “Survival rate of Vcap cells” value (Vcap cells; [1]) was 29.3%, the “Survival rate of Vcap cells” value (Vcap cells; [2]) was 61.8% and the “Survival rate of Vcap cells” value (Vcap cells; [3]) was 30.6%. The “Survival rate of Vcap cells” value (Vcap cells; [4]) was 38.6%, the “Survival rate of Vcap cells” value (Vcap cells; [5]) was 43.8% and the “Survival rate of Vcap cells” value (Vcap cells; [6]) was 24.3%. For the same compound, the “Survival rate of Vcap cells” value (Vcap cells; [7]) was 56.6%, the “Survival rate of Vcap cells” value (Vcap cells; [8]) was 25.2% and the “Survival rate of Vcap cells” value (Vcap cells; [9]) was 34.4%. The “Survival rate of Vcap cells” value (Vcap cells; [10]) was 37.1%, the “Survival rate of Vcap cells” value (Vcap cells; [11]) was 24.5% and the “Survival rate of Vcap cells” value (Vcap cells; [12]) was 52.9%. The “Survival rate of Vcap cells” value (Vcap cells; [13]) was 24.4%, the “Survival rate of Vcap cells” value (Vcap cells; [14]) was 32.5% and the “Survival rate of Vcap cells” value (Vcap cells; [15]) was 32.5%. The “Survival rate of LNCap cells” value (LNCap cells; [1]) was 86.7%, the “Survival rate of LNCap cells” value (LNCap cells; [2]) was 82.4% and the “Survival rate of LNCap cells” value (LNCap cells; [3]) was 59.3%. The “Survival rate of LNCap cells” value (LNCap cells; [4]) was 76.3%, the “Survival rate of LNCap cells” value (LNCap cells; [6]) was 46.3% and the “Survival rate of LNCap cells” value (LNCap cells; [7]) was 46.2%. For the same compound, the “Survival rate of LNCap cells” value (LNCap cells; [8]) was 34.1%, the “Survival rate of LNCap cells” value (LNCap cells; [9]) was 43.6% and the “Survival rate of LNCap cells” value (LNCap cells; [11]) was 32.4%. For the same compound, the “Survival rate of LNCap cells” value (LNCap cells; [12]) was 33.2%, the “Survival rate of LNCap cells” value (LNCap cells; [13]) was 27.1% and the “Survival rate of LNCap cells” value (LNCap cells; [14]) was 31.4%. For the same compound, the “Survival rate of LNCap cells” value (LNCap cells; tested compound alone, 0.1 μM) was 99.6%, the “Survival rate of LNCap cells” value (LNCap cells; tested compound alone, 1 μM) was 63% and the “Survival rate of LNCap cells” value (LNCap cells; tested compound alone, 10 μM) was 42.4%.

In the case of `C[C@]12CC[C@H](O)CC1=CC[C@@H]1[C@@H]2CC[C@]2(C)C(n3cnc4ccccc43)=CC[C@@H]12` [Galeterone, reference compound], the viability at 0.1 µM (Vcap cells; tested compound alone) was 95.9%, the viability at 1 µM (Vcap cells; tested compound alone, 1 μM) was 62.8% and the viability at 10 µM (Vcap cells; tested compound alone) was 19.3%. The “Survival rate of Vcap cells” value (Vcap cells; tested compound alone, 1 μM) was 62.8%, the “Survival rate of LNCap cells” value (LNCap cells; tested compound alone, 0.1 μM) was 104.9% and the “Survival rate of LNCap cells” value (LNCap cells; tested compound alone, 1 μM) was 79%. For the same compound, the “Survival rate of LNCap cells” value (LNCap cells; tested compound alone, 10 μM) was 24.2%.

With `CNC(=O)c1ccc(N2C(=S)N(c3ccc(C#N)c(C(F)(F)F)c3)C(=O)C2(C)C)cc1F` [Enzalutamide, reference compound] the inhibition at 0.5 µM (PSA (Prostate antigen)) was 30.7%, the “Survival rate of LNCap cells” value (LNCap cells; tested compound alone, 0.1 μM) was 101.5% and the “Survival rate of LNCap cells” value (LNCap cells; tested compound alone, 1 μM) was 70.5%. The “Survival rate of LNCap cells” value (LNCap cells; tested compound alone, 1 μM, listed as enzalutamide) was 70.5% and the “Survival rate of LNCap cells” value (LNCap cells; tested compound alone, 10 μM) was 59.3%.

`CC(=O)O[C@H]1CC[C@@]2(C)C(=CC[C@@H]3[C@@H]2CC[C@]2(C)C(c4cccnc4)=CC[C@@H]32)C1` [Abiraterone acetate, reference compound] was tested, and the viability at 0.1 µM (Vcap cells; tested compound alone) was 106%, the viability at 1 µM (Vcap cells; tested compound alone, 1 μM) was 91.7% and the “Survival rate of Vcap cells” value (Vcap cells; [16]) was 72.2%. The “Survival rate of Vcap cells” value (Vcap cells; [17]) was 77.3%, the “Survival rate of Vcap cells” value (Vcap cells; [18]) was 70.5% and the “Survival rate of Vcap cells” value (Vcap cells; [19]) was 70.7%. The “Survival rate of Vcap cells” value (Vcap cells; [20]) was 66.7%, the “Survival rate of Vcap cells” value (Vcap cells; [21]) was 69.2% and the “Survival rate of LNCap cells” value (LNCap cells; tested compound alone, 0.1 μM) was 109.2%. The “Survival rate of LNCap cells” value (LNCap cells; tested compound alone, 1 μM) was 90.7% and the “Survival rate of LNCap cells” value (LNCap cells; tested compound alone, 10 μM) was 45.2%.

`CNC(=O)c1ccc(N2C(=S)N(c3cnc(C#N)c(C(F)(F)F)c3)C(=O)C23CCC3)cc1F` [ARN-509, reference compound] was tested, and the “Survival rate of Vcap cells” value (Vcap cells; [16]) was 42.7%, the “Survival rate of Vcap cells” value (Vcap cells; [17]) was 45.3% and the “Survival rate of Vcap cells” value (Vcap cells; [18]) was 39.2%. The “Survival rate of Vcap cells” value (Vcap cells; [19]) was 38.6%, the “Survival rate of Vcap cells” value (Vcap cells; [20]) was 38.4% and the “Survival rate of Vcap cells” value (Vcap cells; [21]) was 38.0%. The “Survival rate of LNCap cells” value (LNCap cells; tested compound alone, 0.1 μM) was 105.2%, the “Survival rate of LNCap cells” value (LNCap cells; tested compound alone, 1 μM) was 86.7% and the “Survival rate of LNCap cells” value (LNCap cells; tested compound alone, 10 μM) was 60.2%.

With `[2H][C@]1(N2Cc3c(N)cc(F)cc3C2=O)CCC(=O)NC1=O` [B105] the “Vcap cell proliferation inhibition rate” value (Vcap cells; B105 or C111 0.05 μM alone) was 17.4%, the “Vcap cell proliferation inhibition rate” value (Vcap cells; B105 or C111 0.14 μM alone) was 23.9% and the “Vcap cell proliferation inhibition rate” value (Vcap cells; B105 or C111 1.23 μM alone) was 26.3%. For the same compound, the “Vcap cell proliferation inhibition rate” value (Vcap cells; B105 or C111 3.70 μM alone) was 25.9%, the “Vcap cell proliferation inhibition rate” value (Vcap cells; B105 or C111 11.11 μM alone) was 27.0% and the “Vcap cell proliferation inhibition rate” value (Vcap cells; B105 or C111 33.33 μM alone) was 27.4%. For the same compound, the “Vcap cell proliferation inhibition rate” value (Vcap cells; B105 or C111 100.00 μM alone) was 25.1%, the “Vcap cell proliferation inhibition rate” value (Vcap cells; B105 or C111 300.00 μM alone) was 22.8% and the viability at 0.1 µM (Vcap cells; tested compound alone) was 83.3%. The viability at 1 µM (Vcap cells; tested compound alone, 1 μM) was 72.5%, the viability at 10 µM (Vcap cells; tested compound alone) was 72.7% and the “Survival rate of Vcap cells” value (Vcap cells; [1]) was 30.6%. The “Survival rate of Vcap cells” value (Vcap cells; [2]) was 65.0%, the “Survival rate of Vcap cells” value (Vcap cells; [3]) was 31.6% and the “Survival rate of Vcap cells” value (Vcap cells; [4]) was 40.9%. For the same compound, the “Survival rate of Vcap cells” value (Vcap cells; [5]) was 43.3%, the “Survival rate of Vcap cells” value (Vcap cells; [6]) was 28.0% and the “Survival rate of Vcap cells” value (Vcap cells; [7]) was 57.1%. The “Survival rate of Vcap cells” value (Vcap cells; [8]) was 27.5%, the “Survival rate of Vcap cells” value (Vcap cells; [9]) was 36.7% and the “Survival rate of Vcap cells” value (Vcap cells; [10]) was 36.6%. For the same compound, the “Survival rate of Vcap cells” value (Vcap cells; [11]) was 27.0%, the “Survival rate of Vcap cells” value (Vcap cells; [12]) was 58.0% and the “Survival rate of Vcap cells” value (Vcap cells; [13]) was 27.5%. The “Survival rate of Vcap cells” value (Vcap cells; [14]) was 36.3%, the “Survival rate of Vcap cells” value (Vcap cells; [15]) was 32.2% and the “Survival rate of LNCap cells” value (LNCap cells; [1]) was 82.6%. The “Survival rate of LNCap cells” value (LNCap cells; [2]) was 83.7%, the “Survival rate of LNCap cells” value (LNCap cells; [3]) was 57.5% and the “Survival rate of LNCap cells” value (LNCap cells; [4]) was 73.4%. For the same compound, the “Survival rate of LNCap cells” value (LNCap cells; [6]) was 44.7%, the “Survival rate of LNCap cells” value (LNCap cells; [7]) was 47.9% and the “Survival rate of LNCap cells” value (LNCap cells; [8]) was 32%. The “Survival rate of LNCap cells” value (LNCap cells; [9]) was 40.6%, the “Survival rate of LNCap cells” value (LNCap cells; [11]) was 32.4% and the “Survival rate of LNCap cells” value (LNCap cells; [12]) was 31.7%. For the same compound, the “Survival rate of LNCap cells” value (LNCap cells; [13]) was 25.8%, the “Survival rate of LNCap cells” value (LNCap cells; [14]) was 30.6% and the “Survival rate of LNCap cells” value (LNCap cells; tested compound alone, 0.1 μM) was 102.9%. The “Survival rate of LNCap cells” value (LNCap cells; tested compound alone, 1 μM) was 61.5% and the “Survival rate of LNCap cells” value (LNCap cells; tested compound alone, 10 μM) was 40.8%.
